In US20250302728A1, “FRAGRANCE COMPOSITIONS AND PRODUCTS CONVEYING A POSITIVE MOOD” (SYMRISE AG, priority 2022, published 2025):

These molecules were tested on subject's mood (assay: Actimood scoring (correlation of EmoChar and IRT values)). Details: joyful mood (Table 6); scale 0 (low impact) to 3 (high impact).
Type: in vivo, human
Method: 1. Sensorial and Emotional Evaluation of Fragrance Raw Materials Each fragrance was evaluated by 30 subjects. At each appointment, the subject discovered fragrances in one sequence of four fragrances and two sequences of three fragrances separated by a 10-minute break.
For each fragrance, the subject discovered each fragrance on a card strip for 10 seconds. Between each product, a rest-period of 2 minutes was carried out during which the subject smelt their own body odour by smelling their wrist and the subject drank a little bit of water as well.
Emochar™ is a system of emotional characterization, scoring 7 main emotional dimensions from 0 to 10: • Stimulation: focus, attention, and awakening. • Relaxation: serenity, relaxation and appeasing. • Sensual: arousing, sexy and erotic. • Pleasure: liking, “gourmand” and satisfaction. • Tenderness: gentleness and softness. • Joy: excitement, fun and enthusiasm. • Self-esteem: confidence and assurance
Actimood scores are based on a correlation of EmoChar™ and IRT values. The scores are classified on a scale from 0 (low impact on subject's mood) to 3 (high impact on subject's mood).
Each score is obtained according to an algorithm, mixing verbal and non-verbal responses of volunteers to a specific product, or stimulus in a given context. The algorithm was developed from extensive field data, and in accordance with scientific literature and validated biobehavioral patterns associated to various emotional states.
Molecule `CC/C=C\CCOC(=O)OC` [LEAFOVERT ®, (Z)-Hex-3-en-1-yl methyl carbonate] has an Actimood score of 3. With `CCCC(C)C(=O)OCC` (centres unmarked) [MANZANATE, ethyl-2-methylpentanoate] the Actimood score was 3.

Same assay, conditions: protective mood (Table 5); scale 0 (low impact) to 3 (high impact)
In the case of `CC1COCc2cc3c(cc21)C(C)(C)C(C)C3(C)C` (centres unmarked) [GALAXOLIDE PURE, 4,6,6,7,8,8-hexamethyl-1,3,4,7-tetrahydrocyclopenta[G]isochromene], the Actimood score is reported as 2. `CCC(=O)OCC(C)(C)OC(C)C1CCCC(C)(C)C1` (centres unmarked) [HELVETOLIDE, [2-[1-(3,3-dimethylcyclohexyl)ethoxy]-2-methyl-propyl]propanoate] showed an Actimood score of 2. Molecule `CC(=O)C1CC/C(C)=C/CC/C(C)=C/C/C=C/1C` (centres unmarked) [TRIMOFIX O, 1-[(2E,5E,9E)-2,6,10-trimethylcyclododeca-2,5,9-trien-1-yl]ethanone] has an Actimood score of 2.

Same assay, conditions: relaxing and sleep enhancing mood (Composition 1, Table 3); scale 0 (low impact on subject's mood) to 3 (high impact)
`O=C1CCCCCCCC=CCCCCCCO1` [AMBRETTOLIDE HC SUPREME, Oxacycloheptadec-10-en-2-one] showed an Actimood score of 2. `CCCCCCCCC1CCC(=O)O1` (centres unmarked) [DODECALACTONE GAMMA 10% DPG, gamma-Dodecalactone] was tested, and the Actimood score was 1. With `COC(=O)c1c(C)cc(O)c(C)c1O` [EVERNYL 10% DPG, Methyl-2,4-dihydroxy-3,6-dimethyl-benzoate] the Actimood score was 1. Work on `CCC(=O)OCC(C)(C)OC(C)C1CCCC(C)(C)C1` (centres unmarked) [HELVETOLIDE, [2-[1-(3,3-dimethylcyclohexyl)ethoxy]-2-methyl-propyl]propanoate] yielded an Actimood score of 3. Molecule `CC(=O)OC1CCC(C(C)(C)C)CC1` (centres unmarked) [ORYCLON HC, (4-tert-butylcyclohexyl) acetate] has an Actimood score of 1. Molecule `OCCc1ccccc1` [PHENYLETHYL ALCOHOL BA FREE, 2-phenylethanol] has an Actimood score of 2. In the case of `CC(C)CCC1CCC(O)CC1` (centres unmarked) [SYMROSE ®, 4-Isopentylcyclohexanol], the Actimood score is reported as 2.

Same assay, conditions: relaxing mood (Composition 2, Table 4); scale 0 (low impact) to 3 (high impact)
`C=C1CCC=C(C)CCC2C1CC2(C)C` (centres unmarked) [CARYOPHYLLENE NAT. RECT., 4,11,11-trimethyl-8-methylene-bicyclo[7.2.0]undec-4-ene] gave an Actimood score of 3. `CC1COCc2cc3c(cc21)C(C)(C)C(C)C3(C)C` (centres unmarked) [GALAXOLIDE PURE, 4,6,6,7,8,8-hexamethyl-1,3,4,7-tetrahydrocyclopenta[G]isochromene] showed an Actimood score of 3. Molecule `CCC(=O)OCC(C)(C)OC(C)C1CCCC(C)(C)C1` (centres unmarked) [HELVETOLIDE, [2-[1-(3,3-dimethylcyclohexyl)ethoxy]-2-methyl-propyl]propanoate] has an Actimood score of 3. `CC(=O)/C=C/C1C(C)=CCCC1(C)C` (stereo not drawn) [IONONE ALPHA, (E)-4-(2,6,6-trimethylcyclohex-2-en-1-yl)but-3-en-2-one] was tested, and the Actimood score was 3.

Same assay, conditions: self-confident mood (Table 9); scale 0 (low impact) to 3 (high impact)
With `CCCCCCCC1CCC(=O)O1` (centres unmarked) [ALDEHYDE C14 SO-CALLED, 5-heptyltetrahydrofuran-2-one] the Actimood score was 2. `O=C(OCc1ccccc1)c1ccccc1O` [BENZYL SALICYLATE, benzyl 2-hydroxybenzoate] was tested, and the Actimood score was 1. `C=C1CCC=C(C)CCC2C1CC2(C)C` (centres unmarked) [CARYOPHYLLENE NAT. RECT., 4,11,11-trimethyl-8-methylene-bicyclo[7.2.0]undec-4-ene] showed an Actimood score of 3. For `CC(C)=CCCC(C)CCO` (centres unmarked) [CITRONELLOL 950, 3,7-dimethyloct-6-en-1-ol], the Actimood score was 1. With `CCC(=O)OCC(C)(C)OC(C)C1CCCC(C)(C)C1` (centres unmarked) [HELVETOLIDE, [2-[1-(3,3-dimethylcyclohexyl)ethoxy]-2-methyl-propyl]propanoate] the Actimood score was 2. For `CC(=O)/C=C/C1C(C)=CCCC1(C)C` (stereo not drawn) [IONONE ALPHA, (E)-4-(2,6,6-trimethylcyclohex-2-en-1-yl)but-3-en-2-one], the Actimood score was 1. With `CC/C=C\CCOC(=O)OC` [LEAFOVERT ®, (Z)-Hex-3-en-1-yl methyl carbonate] the Actimood score was 0. `Cc1cccc(CC(C)(C)CO)c1` [MAJANTOL ®, beta,beta-3-Trimethyl-benzenepropanol] gave an Actimood score of 2. Work on `COC(=O)c1ccccc1N` [METHYL ANTHRANILATE, Methyl anthranilate] yielded an Actimood score of 0. Work on `OCCc1ccccc1` [PHENYLETHYL ALCOHOL BA FREE, 2-phenylethanol] yielded an Actimood score of 1.

Same assay, conditions: sensual mood (Table 8); scale 0 (low impact) to 3 (high impact)
`C=CCCCCOC(=O)C(C)CC` (centres unmarked) [FRUCTATE ®, Hex-5-enyl 2-methylbutanoate] was tested, and the Actimood score was 0. `Cc1cccc(CC(C)(C)CO)c1` [MAJANTOL ®, beta,beta-3-Trimethyl-benzenepropanol] gave an Actimood score of 2.

Same assay, conditions: well-being mood (Table 10); scale 0 (low impact) to 3 (high impact)
`O=Cc1ccc2c(c1)OCO2` [HELIOTROPIN, 1,3-benzodioxole-5-carbaldehyde] gave an Actimood score of 2. For `CC/C=C/CCO` [HEXENOL CIS-3 10% DPG, Hexenol], the Actimood score was 0. For `CC/C=C\CCOC(C)=O` [HEXENYL ACETATE CIS-3 10% DPG, Hexenyl acetat], the Actimood score was 0. For `CC/C=C\CCOC(=O)OC` [LEAFOVERT ®, (Z)-Hex-3-en-1-yl methyl carbonate], the Actimood score was 2.
